Series [1] has as its system endotoxin-induced ALI in pigs. As to the kind of experiment: Acute lung injury in endotoxemic pigs. In kind it is in vivo. As to conditions: treatment begun prior to LPS infusion. The procedure:
All pigs were pre-treated at T=−18 h with Escherichia coli 0111:B4 LPS (20 μg/kg). Pigs in the RL group (n=4) received no further treatment. […] Lung wet-to-dry weight ratio was determined post-mortem. Lung lipid peroxidation was estimated fluorometrically by measuring thiobarbituric acid reactive products in the lipid fraction of lung parenchymal tissue harvested at T=300 min.

Series [2] can be described thus: Peroxidase activity toward t-BHP, ABTS oxidation. In kind it is biochemical. The conditions noted are these: 1 mM t-BHP versus same concentration of H2O2. The procedure: Peroxidase activity was assayed by monitoring the hydrogen peroxide-dependent oxidation of 2,2′-azino-bis(3-ethylbenzthiazoline-6) sulfonic acid (ABTS) spectrophotometrically. Standard assay mixtures consisted of 50 mM sodium phosphate, pH 8.1, 0.9% sodium chloride, 0.5 mM ABTS, and H2O2 and salen manganese complex as indicated. Where indicated, 50 mM sodium phosphate buffers of pH 6.0 or pH 7.1 were substituted. Assays were conducted at 27±0.2° C. ABTS oxidation was monitored at 740 or 500 nm to eliminate interference by the salen manganese complexes, many of which absorb in the vicinity of the λmax of oxidized ABTS, and to avoid absorbance values that exceeded the linear range of the spectrophotometer. The amount of oxidized ABTS was estimated using an Δε740 of 20,300 M^−1cm^−1 or an Δε500 of 3400 M^−1cm^−1 calculated based upon the published molar extinction coefficient oat 405 nm (36,800).
(In comparison, horseradish peroxidase utilized t-BHP with an ABTS oxidation rate that was about 5.4% of the rate with H2O2).

Series [3] concerns dopaminergic neurons in mouse brain. As to the kind of experiment: MPTP animal model of Parkinson's disease, mazindol binding. The procedure:
This model is now widely accepted in the art and is used for evaluating potential therapeutic agents for this disease.
Tritiated mazindol was used for binding studies on samples of the globus pallidus, caudate nucleus, and striatum of mouse brain according to conventional methods; specific binding of tritiated mazindol was determined autoradiographically or by membrane binding (specific binding to the membrane fraction). The experiment was performed over a 7 day period. Mice in the MPTP group were treated […] with MPTP alone (40 mg/kg each day on days 1 and 2). […] The animals were sacrificed after 7 days.
MPTP in mice. Adult male CFW mice (25-33 g) were administered two injections of MPTP dissolved in normal saline (40 mg/kg, s.c.) 24 hours apart. […] Animals were sacrificed 7 days after the first MPTP injection, and neuronal pathology was assessed by the binding of ^3H-mazindol, a ligand for the dopamine transporter, to […] frozen brain sections or to striatal homogenates.

Series [4] has as its system acidosis-induced mucosal injury. As to the kind of experiment: In vitro model for acidosis-induced mucosal injury.
The nature of series [5]: SOD activity, cytochrome c as acceptor, IC50 (Example 2). In kind it is biochemical. The conditions noted are these: read-out: SOD activity IC50 (half-maximally active concentration). The procedure: Superoxide dismutase (SOD) activity was assayed by following the inhibition of the reduction of an electron acceptor molecule in the presence of the free-radical generating system xanthine/xanthine oxidase (McCord et al. (1973) Superoxide and Superoxide Dismutase in “Oxidases and Related Redox Systems, vol. I, King et al. eds., University Park press, Baltimore, pp. 51-76). The assay mixture consisted of 50 mM sodium phosphate, pH 7.8, 120 μM xanthine, 0.2 units/ml xanthine oxidase, with acceptor molecule and salen manganese compound, as indicated. Assays were conducted at 27±0.2° C. using a water-jacketed cell holder in a Beckman DU7400 spectrophotometer. In most cases, oxidized cytochrome c, at 0.13 mg/ml, was employed as acceptor and its reduction was monitored spectrophotometrically at 550 nm. In some experiments, nitroblue tetrazolium (NBT), at 80 μM, was substituted for cytochrome c as the acceptor. NBT reduction was also monitored at 550 nm. An estimated extinction coefficient for NBT reduction, 20,800 M^−1cm^−1, determined empirically by exhaustive reduction of NBT in the reaction mixture described above, was employed where indicated. This value agreed well with reported extinction coefficients for reduced tetrazolium dyes. […] Conversion of xanthine to urate was calculated using ε290's of […] for urate and 4050 M^−1cm^−1 for xanthine. […]

Take `[Cl][Mn]1[O]c2ccccc2C=NCCN=Cc2ccccc2[O]1` [Compound C7]: the “effect on manifestations of LPS-induced ALI” value in series [1] is reported as “prevents many of the manifestations of LPS-induced ALI”. Also, the “ABTS oxidation rate with t-BHP as percent of the rate with H2O2” value in series [2] was “about 0.5%”. For the same compound, the “number of surviving dopaminergic neurons in mice treated with MPTP” value in series [3] (C7 33 mg/kg i.p. days 1-3, MPTP 40 mg/kg days 1 and 2, versus MPTP alone) is “approximately doubled”. For the same compound, in series [3] (C7 3×33 mg/kg, i.p., MPTP 2×40 mg/kg, s.c.), the “protection against the reduction in 3H-mazindol binding” value is given as “significant (p<0.05) degree of protection”. The “protection against the reduction in 3H-mazindol binding measured in striatal homogenates” value in series [3] (C7 3×33 mg/kg, i.p., MPTP 2×40 mg/kg, s.c., panel B) is given as “significant protection”. The “number of dopaminergic neurons in regions of the mouse brain, compound alone” value in series [3] (C7 alone, no MPTP) is listed as “not adversely affected”. Also, the “protection in acidosis-induced mucosal injury” value in series [4] is listed as “protective”. In addition, in series [5], the IC50 was found to be 3.2 µM.

The values are drawn from patent publication US6900198B2, “Synthetic catalytic free radical scavengers useful as antioxidants for prevention and therapy of disease” (Eukarion, Inc., priority 1995, dated 2005).
